Measurements as given in patent US8822449B2, “Substituted aminoindanes and analogs thereof, and the pharmaceutical use thereof” (Sanofi, priority 2008, dated 2014).

biological target: T1, sodium-proton exchanger of subtype 3 (NHE3) (Homo sapiens, UniProt P48764); test: Recovery of intracellular pH (pHi) after acidification in LAP1 cells stably expressing NHE3 (BCECF fluorescence, FLIPR); format: cell-based; settings: Activity range (inhibitory effect on NHE3), LAP1 cells stably expressing NHE3; pH recovery after acidification; range 1 is % inhibition at 10 μM
T1 construct: expressed in transfected cells
T1 sequence (P48764 26-834): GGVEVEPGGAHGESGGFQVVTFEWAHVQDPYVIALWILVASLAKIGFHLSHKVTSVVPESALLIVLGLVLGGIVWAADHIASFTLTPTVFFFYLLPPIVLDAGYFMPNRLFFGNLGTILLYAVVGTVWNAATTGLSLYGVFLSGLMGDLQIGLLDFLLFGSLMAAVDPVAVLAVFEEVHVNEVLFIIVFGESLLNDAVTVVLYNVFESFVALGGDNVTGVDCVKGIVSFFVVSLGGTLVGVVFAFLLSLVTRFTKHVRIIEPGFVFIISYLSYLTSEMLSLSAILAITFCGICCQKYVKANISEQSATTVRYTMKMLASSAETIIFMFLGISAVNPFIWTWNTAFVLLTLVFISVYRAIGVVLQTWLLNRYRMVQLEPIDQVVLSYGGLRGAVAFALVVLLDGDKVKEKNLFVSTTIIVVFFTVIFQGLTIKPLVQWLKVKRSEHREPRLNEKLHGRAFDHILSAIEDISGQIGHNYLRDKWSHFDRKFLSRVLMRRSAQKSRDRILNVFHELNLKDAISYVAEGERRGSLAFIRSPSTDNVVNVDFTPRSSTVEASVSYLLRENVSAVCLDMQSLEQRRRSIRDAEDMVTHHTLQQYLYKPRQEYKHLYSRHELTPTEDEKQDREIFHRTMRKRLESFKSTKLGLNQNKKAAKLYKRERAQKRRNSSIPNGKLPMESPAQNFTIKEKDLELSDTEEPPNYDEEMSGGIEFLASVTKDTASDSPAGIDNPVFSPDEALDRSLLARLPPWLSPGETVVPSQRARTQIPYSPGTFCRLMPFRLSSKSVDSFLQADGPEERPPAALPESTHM

| Structure (SMILES) | IC50 [µM] |
| --- | --- |
| O=C1CCCN1c1cccc(O[C@H]2c3ccccc3C[C@@H]2N2CCCC2)c1 (racemic) [Example 255, 1-[3-(rac-trans-(1,2)-2-pyrrolidin-1-ylindan-1-yloxy)phenyl]pyrrolidin-2-one] | 1 to 10 |

same assay, conditions: LAP1 cells stably expressing NHE3; pH recovery after acidification; range 1 is % inhibition at 10 μM; read-out: Activity range (inhibitory effect on NHE3)

| Structure (SMILES) | IC50 [µM] | inhibition at 10 µM [%] |
| --- | --- | --- |
| N[C@H]1CCCN([C@H]2CCc3ccccc3[C@@H]2Oc2cccc3ncccc23)C1 (racemic) [Example 193, (S)-1-[rac-trans-(1,2)-1-(quinolin-5-yloxy)-1,2,3,4-tetrahydronaphthalen-2-yl]piperidin-3-ylamine] | 1 to 10 | – |
| CS(=O)(=O)c1ccc(O[C@H]2c3cc(Cl)cc(Cl)c3C[C@@H]2N2CCC[C@@H](NCCF)C2)cc1 [Example 222, {(R)-1-[trans-(1S,2S)-4,6-dichloro-1-(4-methanesulfonylphenoxy)indan-2-yl]piperidin-3-yl}-(2-fluoroethyl)amine] | < 1 | – |
| CS(=O)(=O)c1ccc(O[C@H]2c3ccccc3C[C@@H]2N2CCNCC2)cc1 (racemic) [Example 272, 1-[rac-trans-(1,2)-1-(4-methanesulfonylphenoxy)indan-2-yl]piperazine] | 1 to 10 | – |
| N[C@H]1CCCN([C@H]2CCc3ccccc3[C@@H]2Oc2ccc(OC(F)F)cc2)C1 (racemic) [Example 176, (S)-1-[rac-trans-(1,2)-1-(4-difluoromethoxyphenoxy)-1,2,3,4-tetrahydronaphthalen-2-yl]piperidin-3-ylamine] | – | 20 to 50 |
| CS(=O)(=O)c1ccc(O[C@@H]2c3cc(Cl)cc(Cl)c3C[C@H]2n2ccnc2)cc1 (racemic) [Example 278, 1-[rac-trans-(1,2)-4,6-dichloro-1-(4-methanesulfonylphenoxy)indan-2-yl]-1H-imidazole] | 1 to 10 | – |
| CN1CCN(c2ccc(O[C@H]3c4cc(Cl)cc(Cl)c4C[C@@H]3N3CC[C@@H](O)C3)c(F)c2)C1=O [Example 330, 1-{4-[trans-(1S,2S)-4,6-dichloro-2-((R)-3-hydroxypyrrolidin-1-yl)indan-1-yloxy]-3-fluorophenyl}-3-methylimidazolidin-2-one] | < 1 | – |
| CS(=O)(=O)c1ccc(O[C@H]2c3ccccc3C[C@@H]2N2CCCC2)c(Cl)c1Cl (racemic) [Example 263, 1-[rac-trans-(1,2)-1-(2,3-dichloro-4-methanesulfonylphenoxy)indan-2-yl]pyrrolidine] | < 1 | – |
| COc1cc(O[C@H]2c3ccccc3CC[C@@H]2N2CCC[C@@H](N)C2)ccc1Br (racemic) [Example 63, (R)-1-[rac-trans-(1,2)-1-(4-bromo-3-methoxyphenoxy)-1,2,3,4-tetrahydronaphthalen-2-yl]piperidin-3-ylamine] | – | 20 to 50 |
| N[C@@H]1CCCN([C@H]2CCc3ccccc3[C@@H]2Oc2ccc(C(F)(F)F)cc2)C1 (racemic) [Example 77, (R)-1-[rac-trans-(1,2)-1-(4-trifluoromethylphenoxy)-1,2,3,4-tetrahydronaphthalen-2-yl]piperidin-3-ylamine] | – | 20 to 50 |
| N[C@H]1CCCN([C@H]2CCc3ccccc3[C@@H]2Oc2ccc(N3CCNCC3)cc2)C1 (racemic) [Example 184, (S)-1-[rac-trans-(1,2)-1-(4-piperazin-1-ylphenoxy)-1,2,3,4-tetrahydronaphthalen-2-yl]piperidin-3-ylamine] | – | 20 to 50 |

More lines, now with the values ahead:

| IC50 [µM] | inhibition at 10 µM [%] | Structure (SMILES) |
| --- | --- | --- |
| – | 20 to 50 | Cc1nnc(C)n1-c1cccc(O[C@H]2c3ccccc3C[C@@H]2N2CCCC2)c1 (racemic) [Example 404, 3,5-dimethyl-4-[3-(rac-trans-(1,2)-2-pyrrolidin-1-ylindan-1-yloxy)phenyl]-4H-[1,2,4]triazole] |
| 1 to 10 | – | CS(=O)(=O)c1ccc(N[C@H]2c3ccccc3C[C@@H]2N2CCCC2)cc1 [Example 707, (4-Methanesulfonyl-phenyl)-((1S,2S)-2-pyrrolidin-1-yl-indan-1-yl)-amine] |
| 1 to 10 | – | NS(=O)(=O)c1ccc(O[C@H]2c3ccccc3C[C@@H]2CN2CCCC2)c(F)c1 (racemic) [Example 452, 3-fluoro-4-(2-pyrrolidin-1-ylmethylindan-1-yloxy)benzenesulfonamide] |
| 1 to 10 | – | NC(=O)c1cc(Cl)ccc1O[C@H]1c2ccccc2CC[C@@H]1N1CCC[C@@H](N)C1 (racemic) [Example 365, 2-[rac-trans-(1,2)-2-((R)-3-aminopiperidin-1-yl)-1,2,3,4-tetrahydronaphthalen-1-yloxy]-5-chlorobenzamide] |
| < 1 | – | CS(=O)(=O)c1ccc(O[C@H]2c3cc(Cl)cc(Cl)c3C[C@@H]2N2CCCN(CCO)CC2)cc1 (racemic) [Example 383, 2-{4-[rac-trans-(1,2)-4,6-dichloro-1-(4-methanesulfonylphenoxy)indan-2-yl]-[1,4]diazepan-1-yl}-ethanol] |
| – | 20 to 50 | Cc1nnc(C)n1-c1ccc(O[C@H]2c3ccccc3C(C)(C)[C@@H]2N2CCCC2)cc1 (racemic) [Example 497, 4-[4-(rac-trans-(1,2)-3,3-dimethyl-2-pyrrolidin-1-ylindan-1-yloxy)phenyl]-3,5-dimethyl-4H-[1,2,4]triazole] |
| < 1 | – | CC(=O)Nc1cccc(O[C@H]2c3cc(F)ccc3C[C@@H]2N2CCCC2)c1 (racemic) [Example 661, N-[3-(rac-trans-(1,2)-6-fluoro-2-pyrrolidin-1-ylindan-1-yloxy)phenyl]acetamide] |
| 1 to 10 | – | NS(=O)(=O)c1cc(Cl)c(O[C@H]2c3ccccc3C[C@@H]2N2CCCC2)c(Cl)c1 (racemic) [Example 402, 3,5-dichloro-4-(rac-trans-(1,2)-2-pyrrolidin-1-ylindan-1-yloxy)benzenesulfonamide] |
| 1 to 10 | – | O=S(=O)(NCCC(F)(F)F)c1ccc(O[C@H]2c3ccccc3C[C@@H]2N2CCCC2)cc1 (racemic) [Example 470, 4-(rac-trans-(1,2)-2-pyrrolidin-1-ylindan-1-yloxy)-N-(3,3,3-trifluoropropyl)benzenesulfonamide] |
| < 1 | – | Cc1nnc(C)n1-c1ccc(O[C@H]2c3cc(Cl)ccc3C[C@@H]2N2CCCC2)cc1 [Example 502, 4-[4-(trans-(1S,2S)-6-chloro-2-pyrrolidin-1-ylindan-1-yloxy)phenyl]-3,5-dimethyl-4H-[1,2,4]triazole] |
| 1 to 10 | – | CCCc1ccc(NC(C)=O)cc1O[C@H]1c2ccccc2CC[C@@H]1N1CCC[C@H](N)C1 (racemic) [Example 683, N-{3-[rac-trans-(1,2)-2-((S)-3-aminopiperidin-1-yl)-1,2,3,4-tetrahydronaphthalen-1-yloxy]-4-propylphenyl}acetamide] |
| 1 to 10 | – | COc1cc(Cl)cc(O[C@@H]2c3ccccc3C[C@H]2N2CCC(CN)CC2)c1 (racemic) [Example 612, C-{1-[rac-trans-(1,2)-1-(3-chloro-5-methoxyphenoxy)indan-2-yl]piperidin-4-yl}methylamine] |
| 1 to 10 | – | NS(=O)(=O)c1ccc(O[C@H]2c3ccccc3C[C@@H]2CN2CCCC2)c(Cl)c1 (racemic) [Example 442, 3-chloro-4-(2-pyrrolidin-1-ylmethylindan-1-yloxy)benzenesulfonamide] |
| < 1 | – | CN(C)CCN(C)[C@H]1Cc2c(Cl)cc(Cl)cc2[C@@H]1Oc1ccc(S(C)(=O)=O)cc1 [Example 671, N-[trans-(1S,2S)-4,6-dichloro-1-(4-methanesulfonylphenoxy)indan-2-yl]-N,N′,N′-trimethyl-ethane-1,2-diamine] |
